Data set [1] has as its system human SK—OV-3 ovarian cancer cells. Put plainly: Cellular Activity Assay (cytotoxicity, crystal violet). Type of data set: cell-based. The conditions noted are these: SK—OV-3 cells, treated for 48 hr, 0.1-100 μM, crystal violet absorbance at 540 nm. Summed up: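 SK-OV-3 cells plated, allowed 24 h recovery, then treated 48 hr with compound at 0.1-100 μM. Live cells were fixed (3.0% formaldehyde), stained with 0.1% crystal violet and read at 540 nm. EC50 was fitted after normalizing to matched-DMSO controls.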

The next data set deals with T1, purified human PRX3 (Homo sapiens, UniProt P30048).
T1 construct: made in house
T1 sequence (P30048 62-256): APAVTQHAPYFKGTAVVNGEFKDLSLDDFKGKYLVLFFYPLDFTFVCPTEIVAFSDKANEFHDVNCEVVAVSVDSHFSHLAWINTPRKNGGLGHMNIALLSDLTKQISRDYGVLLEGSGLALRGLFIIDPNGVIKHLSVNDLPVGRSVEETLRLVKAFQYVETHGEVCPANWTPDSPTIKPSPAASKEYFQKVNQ
As to the kind of experiment: Biochemical PRX3 Inhibition Assay (non-reducible crosslink by SDS PAGE + single adduct by MALDI-TOF MS). To be noted: 100 μM PRX3 with TRX2/thioredoxin reductase/NADPH system and hydrogen peroxide, 1-2 hr at 37° C. In outline:
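Purified human PRX3 (100 µM) cycled with TRX2, thioredoxin reductase, NADPH regenerating system and H2O2, incubated with compound 1–2 h at 37 °C. Non-reducible crosslink quantified by densitometry of SDS-PAGE (~46 vs ~23 kDa) after DTT; single-adduct fraction from MALDI-TOF MS peak intensities, background-corrected against DMSO.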

The next data set can be described thus: Solubility Assay (HPLC). Type of data set: physicochemical. The conditions noted are these: HEPES/NaCl buffer, aqueous with cosolvent or surfactant or cyclodextrin, kinetic from dmso stock; 20 mM HEPES, 100 mM NaCl, pH 7.5, 18-24 hours at ambient temperature; read-out: Solubility. In outline:
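Compound from 20 mM DMSO stock added to 20 mM HEPES, 100 mM NaCl, pH 7.5, rotated 18-24 h at ambient temperature, then centrifuged 10 min at 20,000×g to remove solids. Supernatant diluted in DMSO and quantified by HPLC peak area against the closest of 200 μM and 20 μM standards, corrected for dilution.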

The test system of data set [2] is Enterococcus hirae (ATCC #10541). Put plainly: Antimicrobial Activity Assay (MIC / growth inhibition). Type of data set: cell-based. To be noted: ATCC10541; Enterococcus hirae; analogs tested at 20 μM final concentration. How it is done: The overnight growth was then diluted into growth media to make a single solution of E. hirae with a final optical density at 600 nm=0.02 AU. A 20 mM stock solution of Thiostrepton in DMSO was made and used to make multiple dilutions of TS in DMSO. Each TS dilution (0.1 mL) was then added to a test tube containing 10 mL of the diluted E. hirae and grown at 37° C. overnight while shaking at 180 rpm. The next morning, each tube was visually inspected to determine if the cells grew. Final concentrations tested were 0.120, 0.090, 0.075, 0.060, 0.045, 0.030, and 0.015 μM TS. […] Three replicates were made on three separate days (n=9). […] For TS analogs, the dilute E. hirae was treated with 20 μM final concentration of each analog (three replicates each). […] DMSO was used as a positive control (complete cell growth) and 20 μM thiostrepton was used as a negative control.

The text below walks through data of patent publication US20250011316A1, “PEROXIREDOXIN 3 INHIBITORS AND METHODS OF USE FOR TREATING CANCER” (Wake Forest University Health Sciences, priority 2022, published 2025).

Converted amounts (≈) assume the structure as drawn.

`C=C(NC(=O)c1csc(-c2ccc(C(=O)NCCOC)cc2)n1)C(=O)NC(=C)C(=O)OC` [Compound 10, Methyl 2-(2-(2-(4-((2-methoxyethyl)carbamoyl)phenyl)thiazole-4-carboxamido)acrylamido)acrylate] yielded an EC50 in data set [1] (Homo sapiens) of 1 to 10 µM. Further, on purified human PRX3, the “PRX3 Inhibition (Crosslink + Mono-adduct)” value (“PRX3 Inhibition” for short) is on record as “+++ (>90%)”. Besides, in the data set “Solubility Assay (HPLC)”, the solubility was below 100 µM. This molecule yielded an MIC in data set [2] above 20 µM.
The like results for `C=C(NC(=O)c1csc(N2CCC[C@@H](NC(=O)OC(C)(C)C)C2)n1)C(=O)NC(=C)C(=O)OC` [Compound 11, Methyl (R)-2-(2-(2-(3-((tert-butoxycarbonyl)amino)piperidin-1-yl)thiazole-4-carboxamido)acrylamido)acrylate] were, in that order, 1 to 10 µM, “+++ (>90%)”, below 100 µM and above 20 µM.
For `C=C(NC(=O)c1csc(N2CCC(NC(=O)OC(C)(C)C)CC2)n1)C(=O)NC(=C)C(=O)OC` [Compound 12, Methyl 2-(2-(2-(4-((tert-butoxycarbonyl)amino)piperidin-1-yl)thiazole-4-carboxamido)acrylamido)acrylate], in that order: 1 to 10 µM, “+++ (>90%)”, below 100 µM and above 20 µM.
`C=C(NC(=O)c1csc(N2CCC(NC(=O)CCCCCNC(=O)OC(C)(C)C)CC2)n1)C(=O)NC(=C)C(=O)OC` [Compound 13, Methyl 2-(2-(2-(4-(6-((tert-butoxycarbonyl)amino)hexanamido)piperidin-1-yl)thiazole-4-carboxamido)acrylamido)acrylate] registered an EC50 in data set [1] (Homo sapiens, SK-OV-3, 48 h) of 1 to 10 µM. Besides, the “PRX3 Inhibition” value at purified human PRX3 was “+++ (>90%)”. Moreover, in the data set “Solubility Assay (HPLC)”, the solubility is 100 to 1000 µM (≈ 59.3 to 593 µg/mL). The same molecule displayed an MIC in data set [2] above 20 µM.
Consider `C=C(NC(=O)c1csc(-c2cccc(C(=O)OC(C)(C)C)c2)n1)C(=O)NC(=C)C(=O)OC` [Compound 14, Tert-butyl 3-(4-((3-((3-methoxy-3-oxoprop-1-en-2-yl)amino)-3-oxoprop-1-en-2-yl)carbamoyl)thiazol-2-yl)benzoate], for which the EC50 in data set [1] (Homo sapiens) was in the range of 25 to 100 µM. For the same molecule, the “PRX3 Inhibition” value at purified human PRX3 is reported as “+++ (>90%)”. Also, the solubility in “Solubility Assay (HPLC)” was below 100 µM. Moreover, the minimum inhibitory concentration (MIC) in data set [2] is above 20 µM.
In data set [1] (Homo sapiens), `C=C(NC(=O)c1csc(N2CCC(C(=O)NCCNC(=O)OC(C)(C)C)CC2)n1)C(=O)NC(=C)C(=O)OC` [Compound 15, Methyl 2-(2-(2-(4-((2-((tert-butoxycarbonyl)amino)ethyl)carbamoyl)piperidin-1-yl)thiazole-4-carboxamido)acrylamido)acrylate] showed an EC50 of 1 to 10 µM. Besides, the “PRX3 Inhibition” value at purified human PRX3 was “+++ (>90%)”. The solubility in the data set “Solubility Assay (HPLC)” is below 100 µM. For the same molecule, in data set [2], the MIC is above 20 µM.
For the molecule `C=C(NC(=O)c1csc(-c2ccc(CNC(=O)CCCCCNC(=O)OC(C)(C)C)cc2)n1)C(=O)NC(=C)C(=O)OC` [Compound 16, Methyl 2-(2-(2-(4-((6-((tert-butoxycarbonyl)amino)hexanamido)methyl)phenyl)thiazole-4-carboxamido)acrylamido)acrylate], the EC50 in data set [1] fell in the range of 10 to 25 µM. The “PRX3 Inhibition” value on purified human PRX3 is “+++ (>90%)”. In the data set “Solubility Assay (HPLC)”, the solubility is below 100 µM. For the same molecule, the MIC in data set [2] was above 20 µM.
In data set [1] (Homo sapiens), `C=C(NC(=O)c1csc(N2CCOCC2)n1)C(=O)NC(=C)C(=O)OC` [Compound 17, Methyl 2-(2-(2-morpholinothiazole-4-carboxamido)acrylamido)acrylate] had an EC50 of 10 to 25 µM. Besides, at purified human PRX3, the “PRX3 Inhibition” value is “+++ (>90%)”. Besides, in the data set “Solubility Assay (HPLC)”, the solubility was in the range of 100 to 1000 µM (≈ 36.6 to 366 µg/mL). The molecule further registered a minimal inhibitory concentration (MIC) in data set [2] above 20 µM.
In data set [1] (Homo sapiens), `C=C(NC(=O)c1csc(N2CCN(C(=O)OC(C)(C)C)CC2)n1)C(=O)NC(=C)C(=O)OC` [Compound 18, Tert-butyl 4-(4-((3-((3-methoxy-3-oxoprop-1-en-2-yl)amino)-3-oxoprop-1-en-2-yl)carbamoyl)thiazol-2-yl)piperazine-1-carboxylate] returned a half-maximal effective concentration (EC50) of 25 to 100 µM. The “PRX3 Inhibition” value at purified human PRX3 was “+ (5-50%)”. For the same molecule, the solubility in the data set “Solubility Assay (HPLC)” lay within 100 to 1000 µM (≈ 46.6 to 466 µg/mL). In data set [2], this molecule came in with an MIC above 20 µM.
Turning to `C=C(NC(=O)c1csc(N2CCC(NC(=O)CCCCCN=[N+]=[N-])CC2)n1)C(=O)NC(=C)C(=O)OC` [Compound 19, Methyl 2-(2-(2-(4-(6-azidohexanamido)piperidin-1-yl)thiazole-4-carboxamido)acrylamido)acrylate], the EC50 in data set [1] (Homo sapiens) lay in the range of 1 to 10 µM. Further, on purified human PRX3, the “PRX3 Inhibition” value is reported as “+++ (>90%)”. Besides, the solubility in the data set “Solubility Assay (HPLC)” was below 100 µM. This molecule displayed a minimal inhibitory concentration (MIC) in data set [2] above 20 µM.
`C=C(NC(=O)c1csc(N2CCC[C@H](NC(=O)OC(C)(C)C)C2)n1)C(=O)NC(=C)C(=O)OC` [Compound 20, Methyl (S)-2-(2-(2-(3-((tert-butoxycarbonyl)amino)piperidin-1-yl)thiazole-4-carboxamido)acrylamido)acrylate]: the EC50 in data set [1] (Homo sapiens) was 1 to 10 µM. In addition, the “PRX3 Inhibition” value on purified human PRX3 is given as “+++ (>90%)”. Moreover, the solubility in the data set “Solubility Assay (HPLC)” is below 100 µM. The molecule further registered an MIC in data set [2] above 20 µM.
For `C=C(NC(=O)c1csc(N2CCC(N(C)C(=O)OCC)CC2)n1)C(=O)NC(=C)C(=O)OC` [Compound 21, Methyl 2-(2-(2-(4-((ethoxycarbonyl)(methyl)amino)piperidin-1-yl)thiazole-4-carboxamido)acrylamido)acrylate], in that order: 1 to 10 µM, “+++ (>90%)”, below 100 µM and above 20 µM.
As for `C=C(NC(=O)c1csc(N2CCC(CNC(=O)OCC)CC2)n1)C(=O)NC(=C)C(=O)OC` [Compound 22, Methyl 2-(2-(2-(4-(((ethoxycarbonyl)amino)methyl)piperidin-1-yl)thiazole-4-carboxamido)acrylamido)acrylate], the half-maximal effective concentration (EC50) in data set [1] (Homo sapiens) fell in the range of 1 to 10 µM. Also, on purified human PRX3, the “PRX3 Inhibition” value is given as “+++ (>90%)”. Further, the solubility in the data set “Solubility Assay (HPLC)” was below 100 µM. The same molecule came in with an MIC in data set [2] above 20 µM.
For `C=C(NC(=O)c1csc(N2CC[C@@H](NC(=O)OCC)C2)n1)C(=O)NC(=C)C(=O)OC` [Compound 23, Methyl (R)-2-(2-(2-(3-((ethoxycarbonyl)amino)pyrrolidin-1-yl)thiazole-4-carboxamido)acrylamido)acrylate], in that order: 1 to 10 µM, “+++ (>90%)”, below 100 µM and above 20 µM.
Molecule `C=C(NC(=O)c1csc(-c2ccc(OCCOC)cc2)n1)C(=O)NC(=C)C(=O)OC` [Compound 24, Methyl 2-(2-(2-(4-(2-methoxyethoxy)phenyl)thiazole-4-carboxamido)acrylamido)acrylate] registered an EC50 in data set [1] (Homo sapiens) of 1 to 10 µM. For the same molecule, the “PRX3 Inhibition” value on purified human PRX3 was “++ (50-90%)”. Further, the solubility in the data set “Solubility Assay (HPLC)” is below 100 µM. In data set [2], this molecule yielded an MIC above 20 µM.
For `C=C(NC(=O)c1csc(-c2ccc(NC(=O)CCCCCN=[N+]=[N-])cc2)n1)C(=O)NC(=C)C(=O)OC` [Compound 25, Methyl 2-(2-(2-(4-(6-azidohexanamido)phenyl)thiazole-4-carboxamido)acrylamido)acrylate], in that order: 10 to 25 µM, “++ (50-90%)”, below 100 µM and above 20 µM.
